Laboratory results published in ChEMBL document CHEMBL1201862, “PubChem BioAssay data set” (2004).
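Growth conditions: 96-well plates. Treatment: test compound, 48 hours, 5 concentrations. Analysis: linear interpolation between bracketing concentrations; unreached endpoints set to highest concentration. GI50 marks 50% less growth.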 Calls of active or inactive are those of the source. Rule as the data show it: active = GI50 up to about 1.1 µM and inactive = higher.

How the values were obtained:
Experiment in all cases: inhibition of tumour cell growth, NCI panel, 48 h
786-0 = tested on: 786-0
A549 = tested on: A549
ACHN = tested on: ACHN
BT-549 = tested on: BT-549
CAKI-1 = tested on: CAKI-1
CCRF-CEM = tested on: CCRF-CEM
COLO 205 = tested on: COLO 205
DU-145 = tested on: DU-145
EKVX = tested on: EKVX
HCC 2998 = tested on: HCC 2998
HCT-116 = tested on: HCT-116
HCT-15 = tested on: HCT-15
HOP-62 = tested on: HOP-62
HOP-92 = tested on: HOP-92
HT-29 = tested on: HT-29
Hs-578T = tested on: Hs-578T
IGROV-1 = tested on: IGROV-1
K562 = tested on: K562
KM12 = tested on: KM12
LOX IMVI = tested on: LOX IMVI
MCF7 = tested on: MCF7
MDA-MB-231 = tested on: MDA-MB-231
MDA-MB-435 = tested on: MDA-MB-435
MDA-N = tested on: MDA-N
MOLT-4 = tested on: MOLT-4
Malme-3M = tested on: Malme-3M
NCI-H226 = tested on: NCI-H226
NCI-H23 = tested on: NCI-H23
NCI-H460 = tested on: NCI-H460
NCI-H522 = tested on: NCI-H522
NCI/ADR-RES = tested on: NCI/ADR-RES
OVCAR-3 = tested on: OVCAR-3
OVCAR-4 = tested on: OVCAR-4
OVCAR-5 = tested on: OVCAR-5
OVCAR-8 = tested on: OVCAR-8
PC-3 = tested on: PC-3
RXF 393 = tested on: RXF 393
SF-268 = tested on: SF-268
SF-295 = tested on: SF-295
SF-539 = tested on: SF-539
SK-MEL-28 = tested on: SK-MEL-28
SK-MEL-2 = tested on: SK-MEL-2
SK-MEL-5 = tested on: SK-MEL-5
SK-OV-3 = tested on: SK-OV-3
SN12C = tested on: SN12C
SNB-19 = tested on: SNB-19
SNB-75 = tested on: SNB-75
SW-620 = tested on: SW-620
T47D = tested on: T47D
TK-10 = tested on: TK-10
U-251 = tested on: U-251
UACC-257 = tested on: UACC-257
UACC-62 = tested on: UACC-62
UO-31 = tested on: UO-31
A498 = tested on: A498
HL-60 = tested on: HL-60
M14 = tested on: M14
SR = tested on: SR
RPMI-8226 = tested on: RPMI-8226

In the case of `CC(C)(CO)CNc1nc(N)nc(Cl)c1N`, the GI50 (786-0) is reported as > 100 µM (inactive), the GI50 (A549) is reported as > 100 µM (inactive) and the GI50 (ACHN) is reported as > 100 µM (inactive). For the same compound, the GI50 (BT-549) was > 100 µM (inactive), the GI50 (CAKI-1) was > 100 µM (inactive) and the GI50 (CCRF-CEM) was > 100 µM (inactive). For the same compound, the GI50 (COLO 205) was > 100 µM (inactive), the GI50 (DU-145) was > 100 µM (inactive) and the GI50 (EKVX) was > 100 µM (inactive). For the same compound, the GI50 (HCC 2998) was > 100 µM (inactive), the GI50 (HCT-116) was > 100 µM (inactive) and the GI50 (HCT-15) was > 100 µM. The GI50 (HOP-62) was > 100 µM (inactive), the GI50 (HOP-92) was > 100 µM (inactive) and the GI50 (HT-29) was > 100 µM (inactive). The GI50 (Hs-578T) was > 100 µM (inactive), the GI50 (IGROV-1) was > 100 µM (inactive) and the GI50 (K562) was > 100 µM (inactive). For the same compound, the GI50 (KM12) was > 100 µM (inactive), the GI50 (LOX IMVI) was > 100 µM (inactive) and the GI50 (MCF7) was > 100 µM (inactive). The GI50 (MDA-MB-231) was > 100 µM (inactive), the GI50 (MDA-MB-435) was > 100 µM (inactive) and the GI50 (MDA-N) was > 100 µM (inactive). For the same compound, the GI50 (MOLT-4) was > 100 µM (inactive), the GI50 (Malme-3M) was > 100 µM (inactive) and the GI50 (NCI-H226) was 67.3 µM (inactive). The GI50 (NCI-H23) was > 100 µM (inactive), the GI50 (NCI-H460) was > 100 µM (inactive) and the GI50 (NCI-H522) was > 100 µM (inactive). For the same compound, the GI50 (NCI/ADR-RES) was > 100 µM (inactive), the GI50 (OVCAR-3) was > 100 µM (inactive) and the GI50 (OVCAR-4) was > 100 µM (inactive). For the same compound, the GI50 (OVCAR-5) was > 100 µM (inactive), the GI50 (OVCAR-8) was > 100 µM (inactive) and the GI50 (PC-3) was > 100 µM (inactive). For the same compound, the GI50 (RXF 393) was > 100 µM (inactive), the GI50 (SF-268) was > 100 µM (inactive) and the GI50 (SF-295) was > 100 µM (inactive). The GI50 (SF-539) was > 100 µM (inactive), the GI50 (SK-MEL-28) was > 100 µM (inactive) and the GI50 (SK-MEL-2) was > 100 µM (inactive). The GI50 (SK-MEL-5) was 95.1 µM (inactive), the GI50 (SK-OV-3) was > 100 µM (inactive) and the GI50 (SN12C) was > 100 µM (inactive). The GI50 (SNB-19) was > 100 µM (inactive), the GI50 (SNB-75) was > 100 µM (inactive) and the GI50 (SW-620) was > 100 µM (inactive). For the same compound, the GI50 (T47D) was 58.5 µM (inactive), the GI50 (TK-10) was > 100 µM (inactive) and the GI50 (U-251) was > 100 µM (inactive). The GI50 (UACC-257) was 42.9 µM (inactive), the GI50 (UACC-62) was > 100 µM (inactive) and the GI50 (UO-31) was > 100 µM (inactive).

`CC1(C)CC2(C)CC1CC2NC(=O)CCN1CCOCC1` (stereo not given) was tested, and the GI50 (786-0) was > 100 µM (inactive), the GI50 (A498) was > 100 µM (inactive) and the GI50 (A549) was > 100 µM (inactive). For the same compound, the GI50 (ACHN) was > 100 µM (inactive), the GI50 (BT-549) was > 100 µM (inactive) and the GI50 (CAKI-1) was > 100 µM (inactive). For the same compound, the GI50 (CCRF-CEM) was > 100 µM (inactive), the GI50 (COLO 205) was > 100 µM (inactive) and the GI50 (DU-145) was > 100 µM (inactive). For the same compound, the GI50 (EKVX) was > 100 µM (inactive), the GI50 (HCC 2998) was > 100 µM (inactive) and the GI50 (HCT-116) was > 100 µM (inactive). The GI50 (HL-60) was > 100 µM (inactive), the GI50 (HOP-62) was > 100 µM (inactive) and the GI50 (HOP-92) was > 100 µM (inactive). For the same compound, the GI50 (HT-29) was > 100 µM (inactive), the GI50 (Hs-578T) was > 100 µM (inactive) and the GI50 (IGROV-1) was > 100 µM (inactive). For the same compound, the GI50 (K562) was > 100 µM (inactive), the GI50 (KM12) was > 100 µM (inactive) and the GI50 (M14) was > 100 µM (inactive). The GI50 (MCF7) was > 100 µM (inactive), the GI50 (MDA-MB-231) was > 100 µM (inactive) and the GI50 (MDA-MB-435) was > 100 µM (inactive). The GI50 (MDA-N) was > 100 µM (inactive), the GI50 (MOLT-4) was > 100 µM (inactive) and the GI50 (Malme-3M) was > 100 µM (inactive). For the same compound, the GI50 (NCI-H226) was > 100 µM (inactive), the GI50 (NCI-H23) was > 100 µM (inactive) and the GI50 (NCI-H460) was > 100 µM (inactive). The GI50 (NCI-H522) was > 100 µM (inactive), the GI50 (OVCAR-3) was > 100 µM (inactive) and the GI50 (OVCAR-4) was > 100 µM (inactive). The GI50 (OVCAR-5) was > 100 µM (inactive), the GI50 (OVCAR-8) was > 100 µM (inactive) and the GI50 (PC-3) was > 100 µM (inactive). The GI50 (RXF 393) was > 100 µM (inactive), the GI50 (SF-268) was > 100 µM (inactive) and the GI50 (SF-295) was > 100 µM (inactive). The GI50 (SF-539) was > 100 µM (inactive), the GI50 (SK-MEL-28) was > 100 µM (inactive) and the GI50 (SK-MEL-5) was > 100 µM (inactive). The GI50 (SK-OV-3) was > 100 µM (inactive), the GI50 (SN12C) was > 100 µM (inactive) and the GI50 (SNB-19) was > 100 µM (inactive). For the same compound, the GI50 (SNB-75) was > 100 µM (inactive), the GI50 (SR) was > 100 µM (inactive) and the GI50 (SW-620) was > 100 µM (inactive). The GI50 (T47D) was > 100 µM (inactive), the GI50 (TK-10) was > 100 µM (inactive) and the GI50 (U-251) was > 100 µM (inactive). The GI50 (UACC-257) was > 100 µM (inactive), the GI50 (UACC-62) was > 100 µM (inactive) and the GI50 (UO-31) was > 100 µM (inactive).

For `COc1ccc(C2SC(=N)Nc3c2c(C)nn3C(=O)c2ccc(Cl)cc2)cc1OC` (stereo not given), the GI50 (786-0) was > 10 µM (inactive), the GI50 (A549) was > 10 µM (inactive) and the GI50 (ACHN) was > 10 µM (inactive). For the same compound, the GI50 (BT-549) was > 10 µM (inactive), the GI50 (CAKI-1) was > 10 µM (inactive) and the GI50 (CCRF-CEM) was > 10 µM (inactive). For the same compound, the GI50 (COLO 205) was > 10 µM (inactive), the GI50 (DU-145) was > 10 µM (inactive) and the GI50 (EKVX) was > 10 µM (inactive). For the same compound, the GI50 (HCC 2998) was > 10 µM (inactive), the GI50 (HCT-116) was > 10 µM (inactive) and the GI50 (HCT-15) was > 10 µM. The GI50 (HL-60) was > 10 µM (inactive), the GI50 (HOP-62) was > 10 µM (inactive) and the GI50 (HOP-92) was > 10 µM (inactive). For the same compound, the GI50 (HT-29) was > 10 µM (inactive), the GI50 (Hs-578T) was > 10 µM (inactive) and the GI50 (IGROV-1) was > 10 µM (inactive). For the same compound, the GI50 (K562) was > 10 µM (inactive), the GI50 (KM12) was > 10 µM (inactive) and the GI50 (LOX IMVI) was > 10 µM (inactive). The GI50 (M14) was > 10 µM (inactive), the GI50 (MCF7) was > 10 µM (inactive) and the GI50 (MDA-MB-231) was > 10 µM (inactive). The GI50 (MDA-MB-435) was > 10 µM (inactive), the GI50 (MDA-N) was > 10 µM (inactive) and the GI50 (MOLT-4) was > 10 µM (inactive). The GI50 (Malme-3M) was > 10 µM (inactive), the GI50 (NCI-H226) was > 10 µM (inactive) and the GI50 (NCI-H23) was > 10 µM (inactive). The GI50 (NCI-H460) was > 10 µM (inactive), the GI50 (NCI-H522) was > 10 µM (inactive) and the GI50 (NCI/ADR-RES) was > 10 µM (inactive). The GI50 (OVCAR-3) was > 10 µM (inactive), the GI50 (OVCAR-4) was > 10 µM (inactive) and the GI50 (OVCAR-5) was > 10 µM (inactive). For the same compound, the GI50 (OVCAR-8) was > 10 µM (inactive), the GI50 (PC-3) was > 10 µM (inactive) and the GI50 (RPMI-8226) was > 10 µM (inactive). For the same compound, the GI50 (RXF 393) was > 10 µM (inactive), the GI50 (SF-268) was > 10 µM (inactive) and the GI50 (SF-295) was > 10 µM (inactive). The GI50 (SF-539) was > 10 µM (inactive), the GI50 (SK-MEL-28) was > 10 µM (inactive) and the GI50 (SK-MEL-2) was > 10 µM (inactive). For the same compound, the GI50 (SK-MEL-5) was > 10 µM (inactive), the GI50 (SK-OV-3) was > 10 µM (inactive) and the GI50 (SN12C) was > 10 µM (inactive). For the same compound, the GI50 (SNB-19) was > 10 µM (inactive), the GI50 (SNB-75) was > 10 µM (inactive) and the GI50 (SR) was > 10 µM (inactive). For the same compound, the GI50 (SW-620) was > 10 µM (inactive), the GI50 (T47D) was > 10 µM (inactive) and the GI50 (TK-10) was > 10 µM (inactive). The GI50 (U-251) was > 10 µM (inactive), the GI50 (UACC-257) was > 10 µM (inactive) and the GI50 (UACC-62) was > 10 µM (inactive).
